The nature of this data set: r1 relaxivity of dt-Gd(III) nanoconjugates, Bruker minispec 60 MHz. As to conditions: per Gd(III); 60 MHz (1.41 T), 37° C., water plus 0.01% tween 20. The format is physicochemical. On the procedure:
A stock solution of backfilled dt-Gd(III) SNA conjugates was made (700 uL). This stock was serially diluted four times for a total of five solutions. Solutions were heated to 37° C. and two hundred μL of each concentration was placed into a Bruker minispec mq60 NMR spectrometer (60 MHz) for measurement of T1 relaxation time. Data were collected using an inversion recovery pulse sequence using 4 averages, a 15 s repetition time and 10 data points. The remaining volumes of each solution were utilized for ICP analysis of [Gd(III)]. The inverse of the longitudinal relaxation time (1/T1, s−1) was plotted versus the Gd(III) concentration (mM). […] Relaxivities of DNA-Gd@spheres, Gd(III)-DNA and complex 5 were collected by the analogous procedure (Table 3, FIG. 7).

In the case of “2,2′2″(10(3-(((1-(5-(1,2-dithiolan-3-yl)pentyl)-1,2,3-triazol-4-yl)methyl)amino)-3-oxopropyl)-1,4,7,10-tetraazacyclododecyl-gadolinium(III) complex [dt-Gd(III)]”, the r1 relaxivity ionic was determined as 4.9 mM⁻¹ s⁻¹.

Source of the values: US10786582B2, “Gd(III)-dithiolane gold nanoparticle conjugates” (Northwestern University, priority 2015, dated 2020).
